Format in all cases: biochemical
One assay concerns the target T1, HDAC6 (Homo sapiens, UniProt Q9UBN7).
T1 construct: BC069243; Cat. #50006) is full-length with N-terminal GST tag; GST (N); purchased BPS Biosciences 50006; host or cells: baculovirus infected Sf9 cells
T1 sequence (Q9UBN7 1-1215): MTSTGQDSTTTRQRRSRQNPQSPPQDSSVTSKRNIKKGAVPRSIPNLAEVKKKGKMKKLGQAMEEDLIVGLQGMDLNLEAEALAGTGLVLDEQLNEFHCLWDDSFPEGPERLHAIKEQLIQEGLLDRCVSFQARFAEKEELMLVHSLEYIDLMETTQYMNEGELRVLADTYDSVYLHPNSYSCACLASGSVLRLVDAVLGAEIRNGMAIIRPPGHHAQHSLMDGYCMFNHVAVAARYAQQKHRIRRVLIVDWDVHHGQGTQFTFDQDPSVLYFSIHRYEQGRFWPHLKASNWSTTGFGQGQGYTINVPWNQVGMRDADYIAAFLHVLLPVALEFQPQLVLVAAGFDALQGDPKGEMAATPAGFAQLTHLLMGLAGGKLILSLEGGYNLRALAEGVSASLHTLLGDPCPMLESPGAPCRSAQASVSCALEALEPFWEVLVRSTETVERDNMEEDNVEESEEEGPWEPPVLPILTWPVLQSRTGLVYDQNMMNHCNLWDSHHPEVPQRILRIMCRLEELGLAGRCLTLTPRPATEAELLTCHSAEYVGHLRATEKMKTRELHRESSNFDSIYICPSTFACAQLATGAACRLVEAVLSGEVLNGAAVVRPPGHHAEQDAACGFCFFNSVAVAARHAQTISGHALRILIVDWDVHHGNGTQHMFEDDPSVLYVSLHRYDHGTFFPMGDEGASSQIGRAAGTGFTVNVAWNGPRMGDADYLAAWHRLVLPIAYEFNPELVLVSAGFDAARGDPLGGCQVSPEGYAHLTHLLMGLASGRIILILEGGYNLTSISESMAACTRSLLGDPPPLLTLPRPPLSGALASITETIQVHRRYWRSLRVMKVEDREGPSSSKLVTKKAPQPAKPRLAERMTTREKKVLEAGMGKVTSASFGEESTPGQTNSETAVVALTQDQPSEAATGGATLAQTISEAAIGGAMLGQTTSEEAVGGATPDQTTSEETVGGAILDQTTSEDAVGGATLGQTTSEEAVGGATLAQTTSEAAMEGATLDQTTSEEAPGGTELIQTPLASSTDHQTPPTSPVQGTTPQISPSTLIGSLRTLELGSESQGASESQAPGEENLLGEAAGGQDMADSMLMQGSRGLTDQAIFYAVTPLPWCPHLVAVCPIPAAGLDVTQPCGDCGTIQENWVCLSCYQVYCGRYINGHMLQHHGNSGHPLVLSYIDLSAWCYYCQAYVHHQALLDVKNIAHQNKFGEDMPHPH
Briefly: HDAC enzyme activity assay (fluorogenic substrate), HDAC6. To be noted: recombinant enzyme; read-out: HDAC6 inhibition (IC50).

Another assay deals with T2, PDE5A (Homo sapiens, UniProt O76074).
T2 construct: they are full-length with N-terminal GST tag; GST (N); purchased BPS Biosciences 60050; host or cells: baculovirus infected Sf9 cells
The assay is described as follows: PDE enzyme activity assay (HTRF cGMP), PDE5A. To be noted: recombinant enzyme; read-out: PDE5A1 inhibition (IC50). On the technique in general: In TR-FRET formats the signal depends on donor and acceptor labels being close together.

A further assay addresses HDAC1 (Homo sapiens, UniProt Q13547). Briefly: HDAC enzyme activity assay (fluorogenic substrate), HDAC1. The settings on record: recombinant enzyme; read-out: HDAC1 inhibition (IC50).

The structures appear in SMILES notation.

Sequence of HDAC1 (Q13547 whole entry): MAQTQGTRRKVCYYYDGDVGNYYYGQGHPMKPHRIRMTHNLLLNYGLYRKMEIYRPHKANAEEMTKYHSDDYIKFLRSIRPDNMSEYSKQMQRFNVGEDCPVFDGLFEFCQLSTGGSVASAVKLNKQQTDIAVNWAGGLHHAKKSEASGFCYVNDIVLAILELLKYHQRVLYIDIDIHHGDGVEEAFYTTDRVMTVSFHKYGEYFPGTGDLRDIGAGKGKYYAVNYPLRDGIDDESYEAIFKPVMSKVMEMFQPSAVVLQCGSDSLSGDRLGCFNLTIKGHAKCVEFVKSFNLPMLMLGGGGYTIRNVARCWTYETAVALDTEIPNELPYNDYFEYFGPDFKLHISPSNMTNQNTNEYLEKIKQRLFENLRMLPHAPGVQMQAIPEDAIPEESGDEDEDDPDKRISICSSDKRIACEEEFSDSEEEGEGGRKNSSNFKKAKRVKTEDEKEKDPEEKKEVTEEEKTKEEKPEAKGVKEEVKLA

As for `CCCc1nn(C)c2c(=O)[nH]c(-c3cc(C4CCC(C(=O)NO)CC4)ccc3OCC)nc12` (racemic) [Example 1-75, 4-[4-ethoxy-3-(1-methyl-7-oxo-3-propyl-6H-pyrazolo[4,3-d]pyrimidin-5-yl)phenyl]cyclohexanecarbohydroxamic acid], the IC50 at HDAC6 fell in the range of 1 to 10 µM; on PDE5A, 0.01 to 1 µM.
The matching figures for `CCCc1nn(C)c2c(=O)[nH]c(-c3cc(CC4CCC(C(=O)NO)CC4)ccc3OCC)nc12` (racemic) [Example 1-76, 4-[[4-ethoxy-3-(1-methyl-7-oxo-3-propyl-6H-pyrazolo[4,3-d]pyrimidin-5-yl)phenyl]methyl]cyclohexanecarbohydroxamic acid]: 0.01 to 1 µM and 0.01 to 1 µM.
With `CCCc1nn(C)c2c(=O)[nH]c(-c3cc(CC4CCC(C(=O)NO)C4)ccc3OCC)nc12` (racemic) [Example 1-80, 3-[[4-ethoxy-3-(1-methyl-7-oxo-3-propyl-6H-pyrazolo[4,3-d]pyrimidin-5-yl)phenyl]methyl]cyclopentanecarbohydroxamic acid], the 50% inhibitory concentration (IC50) on HDAC6 and on PDE5A was 0.01 to 1 µM in each case.
With `CCCc1nn(C)c2c(=O)[nH]c(-c3cc(C4CC(C(=O)NO)C4)ccc3OCC)nc12` (racemic) [Example 1-82, 3-[4-ethoxy-3-(1-methyl-7-oxo-3-propyl-6H-pyrazolo[4,3-d]pyrimidin-5-yl)phenyl]cyclobutanecarbohydroxamic acid], the IC50 on HDAC6 and at PDE5A was 0.01 to 1 µM throughout.
For `CCCc1nc(C)c2c(=O)[nH]c(-c3cc(C4CCC(C(=O)NO)CC4)ccc3OCC)nn12` (racemic) [Example 2-12, 4-[4-ethoxy-3-(5-methyl-4-oxo-7-propyl-3H-imidazo[5,1-f][1,2,4]triazin-2-yl)phenyl]cyclohexanecarbohydroxamic acid], the IC50 at HDAC6 is 1 to 10 µM; on PDE5A it was under 0.01 µM.
`O=C(NO)c1cnc(N2CCC(N3CC(=O)N4C(Cc5c([nH]c6ccccc56)C4c4ccc5c(c4)OCO5)C3=O)CC2)nc1` (racemic) [Example 4-03, N-Hydroxy-2-(4-[6-(1,3-benzodioxol-5-yl)-2,3,6,7,12,12a-hexahydropyrazino[1′,2′:1,6]pyrido[3,4-b]indole-1,4-dion-2-yl]piperidin-1-yl)pyrimidine-5-carboxamide]: the 50% inhibitory concentration (IC50) on HDAC1 and at PDE5A was 0.01 to 1 µM throughout.
As to `CCCc1nn(C)c2c(=O)[nH]c(-c3cc(OCC4CCN(c5ncc(C(=O)NO)cn5)CC4)ccc3OCC)nc12` [Example 1-11, N-Hydroxy-2-(4-[3-(6,7-dihydro-1-methyl-7-oxo-3-propyl-1H-pyrazolo[4,3-d]pyrimidin-5-yl)-4-ethoxyphenoxymethyl]-piperidin-1-yl)pyrimidine-5-carboxamide], the IC50 on HDAC1 lay in the range of 0.01 to 1 µM; on PDE5A it was 1 to 10 µM.
In the case of `CCCc1nn(C)c2c(=O)[nH]c(-c3cccc(OC4CCN(c5ncc(C(=O)NO)cn5)CC4)c3)nc12` [Example 1-14], the IC50 fell in the range of 0.01 to 1 µM on HDAC6, 0.01 to 1 µM at HDAC1 and 1 to 10 µM at PDE5A.
Consider `CCCc1nn(C)c2c(=O)[nH]c(-c3cc(NC4CCN(c5ccc(C(=O)NO)cc5)CC4)ccc3OCC)nc12` [Example 1-47], for which the half-inhibitory concentration (IC50) lay within 1 to 10 µM on HDAC6, 1 to 10 µM on HDAC1 and 0.01 to 1 µM at PDE5A.
For `CCCc1nn(C)c2c(=O)[nH]c(-c3cc(-c4ccc(C(=O)NO)s4)ccc3OCC)nc12` [Example 1-71], the IC50 at HDAC6 was 0.01 to 1 µM; on PDE5A it was under 0.01 µM.
For `CCCc1nn(C)c2c(=O)[nH]c(-c3cc(-c4ccc(C(=O)NO)cn4)ccc3OCC)nc12` [Example 1-72], in that order: 0.01 to 1 µM and under 0.01 µM.
For the compound `CCCc1nn(C)c2c(=O)[nH]c(-c3cc(-c4ccc(C(=O)NO)nc4)ccc3OCC)nc12` [Example 1-73], the IC50 at HDAC6 is 0.01 to 1 µM; on PDE5A, under 0.01 µM.
For `CCCc1nn(C)c2c(=O)[nH]c(-c3cc(-c4ccc(C(=O)NO)o4)ccc3OCC)nc12` [Example 1-74], in that order: 1 to 10 µM and under 0.01 µM.
Take `CCCc1nn(C)c2c(=O)[nH]c(-c3cc(C(OC)c4ccc(C(=O)NO)cc4)ccc3OCC)nc12` (stereo not drawn) [Example 1-77, 4-[[4-ethoxy-3-(1-methyl-7-oxo-3-propyl-6H-pyrazolo[4,3-d]pyrimidin-5-yl)phenyl]-methoxy-methyl]benzenecarbohydroxamic acid]: the IC50 on HDAC6 and on PDE5A was 0.01 to 1 µM in each case.
Regarding `CCCc1nn(C)c2c(=O)[nH]c(-c3cc(C(O)c4ccc(C(=O)NO)cc4)ccc3OCC)nc12` (stereo not drawn) [Example 1-78, 4-[[4-ethoxy-3-(1-methyl-7-oxo-3-propyl-6H-pyrazolo[4,3-d]pyrimidin-5-yl)phenyl]-hydroxy-methyl]benzenecarbohydroxamic acid], the IC50 is 0.01 to 1 µM at HDAC6 and under 0.01 µM on PDE5A.
The matching figures for `CCCc1nn(C)c2c(=O)[nH]c(-c3cc(C(=O)c4ccc(C(=O)NO)s4)ccc3OCC)nc12` [Example 1-79, 5-[4-ethoxy-3-(1-methyl-7-oxo-3-propyl-6H-pyrazolo[4,3-d]pyrimidin-5-yl)benzoyl]thiophene-2-carbohydroxamic acid]: 0.01 to 1 µM and under 0.01 µM.
Regarding `CCCc1nn(C)c2c(=O)[nH]c(-c3cc(CC4CCC(C(=O)NO)C4)ccc3OCC)nc12` (stereo not drawn) [Example 1-83, 3-[[4-ethoxy-3-(1-methyl-7-oxo-3-propyl-6H-pyrazolo[4,3-d]pyrimidin-5-yl)phenyl]methyl]cyclopentanecarbohydroxamic acid], the IC50 on HDAC6 and on PDE5A was 0.01 to 1 µM in each case.
For the compound `CCCc1nc(C)c2c(=O)[nH]c(-c3cc(S(=O)(=O)N4CCN(Cc5ccc(/C=C/C(=O)NO)cc5)CC4)ccc3OCC)nn12` [Example 2-01, (E)-3-[4-[[4-[4-Ethoxy-3-(5-methyl-4-oxo-7-propyl-3H-imidazo[5,1-f][1,2,4]triazin-2-yl)phenyl]sulfonylpiperazin-1-yl]methyl]phenyl]prop-2-enehydroxamic acid], the IC50 at HDAC1 is 1 to 10 µM; at PDE5A, under 0.01 µM.
With `CCCc1nc(C)c2c(=O)[nH]c(-c3cc(Cc4ccc(C(=O)NO)s4)ccc3OCC)nn12` [Example 2-10], the figures for the IC50 on HDAC6 and on PDE5A were 0.01 to 1 µM and under 0.01 µM, respectively.
The matching figures for `CCCc1nc(C)c2c(=O)[nH]c(-c3cc(-c4ccc(C(=O)NO)cc4)ccc3OCC)nn12` [Example 2-11]: 0.01 to 1 µM and under 0.01 µM.
For `CCCc1nc(C)c2c(=O)[nH]c(-c3cc(C4CCC(C(=O)NO)CC4)ccc3OCC)nn12` (stereo not drawn) [Example 2-13, 4-[4-ethoxy-3-(5-methyl-4-oxo-7-propyl-3H-imidazo[5,1-f][1,2,4]triazin-2-yl)phenyl]cyclohexanecarbohydroxamic acid], in that order: 0.01 to 1 µM and under 0.01 µM.
As for `O=C(/C=C/c1ccc(N2CC(=O)N3[C@H](c4ccc5c(c4)OCO5)c4[nH]c5ccccc5c4C[C@@H]3C2=O)cc1)NO` [Example 4-01, (E)-N-Hydroxy-4-[6-(1,3-benzodioxol-5-yl)-2,3,6,7,12,12a-hexahydropyrazino[1′,2′:1,6]pyrido[3,4-b]indole-1,4-dion-2-yl]phenylprop-2-enamide], the IC50 at HDAC1 was over 10 µM; at PDE5A it was 0.01 to 1 µM.
For `O=C(CCCN1CCC(N2CC(=O)N3[C@H](c4ccc5c(c4)OCO5)c4[nH]c5ccccc5c4C[C@@H]3C2=O)CC1)NO` [Example 4-02], in that order: over 10 µM and 0.01 to 1 µM.
The matching figures for `O=C(/C=C/c1ccc(CN2CCC(N3CC(=O)N4[C@H](c5ccc6c(c5)OCO6)c5[nH]c6ccccc6c5C[C@@H]4C3=O)CC2)cc1)NO` [Example 4-04]: 0.01 to 1 µM and 0.01 to 1 µM.
Regarding `CCCc1nn(C)c2c(=O)[nH]c(-c3cc(S(=O)(=O)N4CCN(C)CC4)ccc3OCC)nc12` [Sildenafil, reference compound], on HDAC1, the IC50 is over 10 µM.

By IC50 is commonly meant the point on the concentration scale where inhibition reaches its midpoint.
